Laboratory results from US20260008862A1, “Bispecific Anti-BCMA x Anti-CD3 Antibodies and Uses Thereof” (Regeneron Pharmaceuticals, Inc., priority 2018, published 2026).
Like-named read-outs stand apart in the source and are kept apart here.

Assays:
[1] = test system: Jurkat/NFATLuc.3C7 cells + Raji cells; experiment: Jurkat/NFATLuc reporter bioassay with Raji cells; type: cell-based; details: highest RLU / lowest RLU
Method: (§1) Activity of the anti-BCMA×anti-CD3 bispecific antibodies were assessed in a Jurkat/NFATLuc reporter bioassay utilizing several cell lines with varying levels of BCMA surface expression. The Jurkat cells were engineered to express an NFAT-luciferase reporter (Jurkat/NFATLuc.3C7), and 50,000 Jurkat reporter cells were combined with 50,000 BCMA positive (Daudi, MM1-S, NCI-H929, OPM-2, RPMI-8226, MOLP-8, or Raji) or BCMA negative (HEK293) cells in Thermo Nunclon delta 96 well white microwell plates (Thermo Scientific, Cat #136102) in 50 ul of assay media (RPMI media with 10% FBS and 1% P/S/G). Three-fold serial dilutions of the BCMA×CD3 bispecific antibodies (mAb25441 D or mAb25442D), or a bivalent anti-BCMA antibody (mAb21581) were immediately added in 50 μL of assay buffer. The plates were gently agitated and incubated in a 37° C., 5% CO2 incubator for 4-6 hours. NFAT-Luciferase activity was determined using Promega One-Glo (Cat #E6130) and a Perkin Elmer Envision plate reader. RLU were plotted in GraphPad Prism using a four-parameter logistic equation over a 12-point response curve to calculate EC50 values. […] The signal to noise (S:N) is determined by taking the ratio of the highest RLU on the curve to the lowest.

[2] = test system: Jurkat/NFATLuc.3C7 cells + Daudi cells; experiment: Jurkat/NFATLuc reporter bioassay with Daudi cells; type: cell-based; details: highest RLU / lowest RLU
Method: as §1

[3] = test system: primary multiple myeloma blast cells; experiment: FACS cytotoxicity assay, autologous T cell-mediated killing of primary multiple myeloma blast cells; type: cell-based, human; details: for EC50: read-out: MM Lysis EC50
Method: In order to monitor the specific killing of multiple myeloma cells by flow cytometry, bone marrow mononuclear cells (BMMC) from multiple myeloma patients were plated on human stromal cells (HS5) and rested overnight at 37 C. Separately, matching patient peripheral blood mononuclear cells (PBMC) were thawed and cultured in supplemented RPMI media at 1×10^6 cells/mL overnight at 37° C. in order to enrich for lymphocytes by depleting adherent cells. The next day, BMMC were co-incubated with adherent cell-depleted naïve PBMC on stromal cells (HS5) and a serial […] dilution of BCMA×CD3 bispecific or 1-arm CD3 isotype control (starting concentration 66.7 nM) at 37° C. Cells were removed from cell culture plates at day 3, 4 or 7 and analyzed by FACS. For the assessment of specificity of killing, multiple myeloma cells were gated as single, live, CD90 negative (to exclude stromal cells), CD2 negative, CD56 positive. CD45 was low on multiple myeloma cells in most samples except MM455. Percent of live target cells was reported for the calculation of adjusted survival as follows: Adjusted survival=(R1/R2)*100, where R1=% live target cells in the presence of antibody, and R2=% live target cells in the absence of test antibody.
T cells were gated as CD2 positive, CD56 negative and either CD4 or CD8 positive. T cell activation was reported as the percent of CD25+CD4 or CD8 T cells out of total CD4 or CD8 T cells.

[4] = test system: BCMA-expressing NCI-H929 tumors; experiment: NCI-H929 + PBMC xenogenic tumor model, immediate treatment, dose response (Example 11); type: in vivo, mouse
Method: To determine the in vivo efficacy of anti-BCMA×anti-CD3 bispecific antibodies (Abs), a xenogenic tumor study was performed. Immunodeficient NOD.Cg-Prkdc^scidIl2rg^tm1Wji/SzJ (NSG) mice were subcutaneously implanted with a mixture of 10×10^6 BCMA-expressing NCI-H929 human multiple myeloma tumor cells and 0.5×10^6 human peripheral blood mononuclear cells (PBMC) isolated from a normal, healthy donor. […] The mice were administered these Abs twice per week for a total of seven doses, and tumor growth was assessed over 60 days. While BCMA^+ NCI-H929 tumors grew similarly in the vehicle- and CD3-binding control-treated mice, both anti-BCMA×anti-CD3 Abs that were tested prevented the growth of tumors in a dose-dependent manner in vivo.
Implantation and measurement of xenogenic tumors: NSG mice were subcutaneously implanted with a mixture of 10×10^6 BCMA-expressing NCI-H929 multiple myeloma cells and 0.5×10^6 PBMC derived from a normal, healthy donor. […] The mice were administered Abs twice per week for a total of seven doses. Tumor growth was measured with calipers twice per week for the duration of the experiment.
Calculation of xenogenic tumor growth and inhibition: In order to determine tumor volume by external caliper, the greatest longitudinal diameter (length in mm) and the greatest transverse diameter (width in mm) were determined. Tumor volumes based on caliper measurements were calculated by the formula: Volume (mm^3)=(length×width^2)/2.

[5] = sample MM2, newly diagnosed, E:T 1.4, 7 days
[6] = sample MM369, newly diagnosed, E:T 0.3, 3 days
[7] = sample MM453, newly diagnosed, E:T 2.4, 3 days
[8] = sample MM455, progression, treated, E:T 0.4, 3 days

REGN5458: anti-BCMA×anti-CD3 bispecific antibody: BCMA HCVR of mAb21581 (SEQ 66), CD3 HCVR of mAb7221G (SEQ 90), common LCVR SEQ 82
S:N [1]: 123 | S:N [2]: 43 | EC50 ([3]; sample MM2, E:T 1.4, 7 days): 0.747 nM | % MM lysis at 66 nM [3, 5]: 88% | % MM lysis at 66 nM [3, 6]: 96% | EC50 ([3]; sample MM453, E:T 2.4, 3 days): 0.0989 nM | % MM lysis at 66 nM [3, 7]: 82% | EC50 ([3]; sample MM455, E:T 0.4, 3 days): 3.67 nM | % MM lysis at 66 nM [3, 8]: 63% | Average Tumor Size (mm3) ± SEM on Day 7 ([4]; 0.04 mg/kg): 30.8 ± 5.5 mm3 | Average Tumor Size (mm3) ± SEM on Day 12 ([4]; 0.04 mg/kg): 71.5 ± 22.4 mm3 | Average Tumor Size (mm3) ± SEM on Day 15 ([4]; 0.04 mg/kg): 133.4 ± 50.9 mm3 | Average Tumor Size (mm3) ± SEM on Day 19 ([4]; 0.04 mg/kg): 413.7 ± 162.7 mm3 | Average Tumor Size (mm3) ± SEM on Day 22 ([4]; 0.04 mg/kg): 669.4 ± 248.5 mm3 | Average Tumor Size (mm3) ± SEM on Day 26 ([4]; 0.04 mg/kg): 1167.0 ± 431.7 mm3 | Average Tumor Size (mm3) ± SEM on Day 29 ([4]; 0.04 mg/kg): 1781.8 ± 620.7 mm3 | Average Tumor Size (mm3) ± SEM on Day 4 ([4]; 0.4 mg/kg): 31.9 ± 2.0 mm3 | Average Tumor Size (mm3) ± SEM on Day 7 ([4]; 0.4 mg/kg): 11.3 ± 3.0 mm3 | Average Tumor Size (mm3) ± SEM on Day 15 ([4]; 0.4 mg/kg): 0 ± 0 mm3 | Average Tumor Size (mm3) ± SEM on Day 19 ([4]; 0.4 mg/kg): 0 ± 0 mm3 | Average Tumor Size (mm3) ± SEM on Day 22 ([4]; 0.4 mg/kg): 0 ± 0 mm3 | Average Tumor Size (mm3) ± SEM on Day 26 ([4]; 0.4 mg/kg): 0 ± 0 mm3 | Average Tumor Size (mm3) ± SEM on Day 29 ([4]; 0.4 mg/kg): 0 ± 0 mm3 | Average Tumor Size (mm3) ± SEM on Day 34 ([4]; 0.4 mg/kg): 0 ± 0 mm3 | Average Tumor Size (mm3) ± SEM on Day 39 ([4]; 0.4 mg/kg): 0 ± 0 mm3 | Average Tumor Size (mm3) ± SEM on Day 42 ([4]; 0.4 mg/kg): 0 ± 0 mm3 | Average Tumor Size (mm3) ± SEM on Day 46 ([4]; 0.4 mg/kg): 0 ± 0 mm3 | Average Tumor Size (mm3) ± SEM on Day 55 ([4]; 0.4 mg/kg): 0 ± 0 mm3 | Average Tumor Size (mm3) ± SEM on Day 60 ([4]; 0.4 mg/kg): 0 ± 0 mm3 | Average Tumor Size (mm3) ± SEM on Day 4 ([4]; 4 mg/kg): 18.0 ± 1.2 mm3 | Average Tumor Size (mm3) ± SEM on Day 12 ([4]; 4 mg/kg): 0 ± 0 mm3 | Average Tumor Size (mm3) ± SEM on Day 15 ([4]; 4 mg/kg): 0 ± 0 mm3 | Average Tumor Size (mm3) ± SEM on Day 19 ([4]; 4 mg/kg): 0 ± 0 mm3 | Average Tumor Size (mm3) ± SEM on Day 22 ([4]; 4 mg/kg): 0 ± 0 mm3 | Average Tumor Size (mm3) ± SEM on Day 26 ([4]; 4 mg/kg): 0 ± 0 mm3 | Average Tumor Size (mm3) ± SEM on Day 29 ([4]; 4 mg/kg): 0 ± 0 mm3 | Average Tumor Size (mm3) ± SEM on Day 34 ([4]; 4 mg/kg): 0 ± 0 mm3 | Average Tumor Size (mm3) ± SEM on Day 39 ([4]; 4 mg/kg): 0 ± 0 mm3 | Average Tumor Size (mm3) ± SEM on Day 42 ([4]; 4 mg/kg): 0 ± 0 mm3 | Average Tumor Size (mm3) ± SEM on Day 46 ([4]; 4 mg/kg): 0 ± 0 mm3 | Average Tumor Size (mm3) ± SEM on Day 55 ([4]; 4 mg/kg): 0 ± 0 mm3 | Average Tumor Size (mm3) ± SEM on Day 60 ([4]; 4 mg/kg): 0 ± 0 mm3

REGN5459: anti-BCMA×anti-CD3 bispecific antibody: BCMA HCVR of mAb21581 (SEQ 66), CD3 HCVR of mAb7221G20 (SEQ 98), common LCVR SEQ 82
S:N [1]: 78 | S:N [2]: 25 | EC50 ([3]; sample MM2, E:T 1.4, 7 days): 7.24 nM | % MM lysis at 66 nM [3, 5]: 85% | EC50 ([3]; sample MM369, E:T 0.3, 3 days): 0.496 nM | % MM lysis at 66 nM [3, 6]: 94% | EC50 ([3]; sample MM453, E:T 2.4, 3 days): 1.19 nM | % MM lysis at 66 nM [3, 7]: 80% | EC50 ([3]; sample MM455, E:T 0.4, 3 days): 79.4 nM | % MM lysis at 66 nM [3, 8]: 52% | Average Tumor Size (mm3) ± SEM on Day 4 ([4]; 0.04 mg/kg): 33.0 ± 4.4 mm3 | Average Tumor Size (mm3) ± SEM on Day 7 ([4]; 0.04 mg/kg): 8.4 ± 4.0 mm3 | Average Tumor Size (mm3) ± SEM on Day 12 ([4]; 0.04 mg/kg): 0 ± 0 mm3 | Average Tumor Size (mm3) ± SEM on Day 19 ([4]; 0.04 mg/kg): 23.1 ± 23.1 mm3 | Average Tumor Size (mm3) ± SEM on Day 22 ([4]; 0.04 mg/kg): 69.5 ± 69.5 mm3 | Average Tumor Size (mm3) ± SEM on Day 26 ([4]; 0.04 mg/kg): 156.7 ± 156.7 mm3 | Average Tumor Size (mm3) ± SEM on Day 29 ([4]; 0.04 mg/kg): 226.6 ± 226.6 mm3 | Average Tumor Size (mm3) ± SEM on Day 4 ([4]; 0.4 mg/kg): 19.6 ± 4.4 mm3 | Average Tumor Size (mm3) ± SEM on Day 12 ([4]; 0.4 mg/kg): 0 ± 0 mm3 | Average Tumor Size (mm3) ± SEM on Day 15 ([4]; 0.4 mg/kg): 0 ± 0 mm3 | Average Tumor Size (mm3) ± SEM on Day 19 ([4]; 0.4 mg/kg): 0 ± 0 mm3 | Average Tumor Size (mm3) ± SEM on Day 22 ([4]; 0.4 mg/kg): 0 ± 0 mm3 | Average Tumor Size (mm3) ± SEM on Day 26 ([4]; 0.4 mg/kg): 0 ± 0 mm3 | Average Tumor Size (mm3) ± SEM on Day 29 ([4]; 0.4 mg/kg): 0 ± 0 mm3 | Average Tumor Size (mm3) ± SEM on Day 34 ([4]; 0.4 mg/kg): 0 ± 0 mm3 | Average Tumor Size (mm3) ± SEM on Day 39 ([4]; 0.4 mg/kg): 0 ± 0 mm3 | Average Tumor Size (mm3) ± SEM on Day 42 ([4]; 0.4 mg/kg): 0 ± 0 mm3 | Average Tumor Size (mm3) ± SEM on Day 46 ([4]; 0.4 mg/kg): 0 ± 0 mm3 | Average Tumor Size (mm3) ± SEM on Day 55 ([4]; 0.4 mg/kg): 0 ± 0 mm3 | Average Tumor Size (mm3) ± SEM on Day 60 ([4]; 0.4 mg/kg): 0 ± 0 mm3 | Average Tumor Size (mm3) ± SEM on Day 4 ([4]; 4 mg/kg): 21.8 ± 3.4 mm3 | Average Tumor Size (mm3) ± SEM on Day 7 ([4]; 4 mg/kg): 8.0 ± 4.3 mm3 | Average Tumor Size (mm3) ± SEM on Day 12 ([4]; 4 mg/kg): 1.7 ± 1.7 mm3 | Average Tumor Size (mm3) ± SEM on Day 15 ([4]; 4 mg/kg): 0 ± 0 mm3 | Average Tumor Size (mm3) ± SEM on Day 19 ([4]; 4 mg/kg): 0 ± 0 mm3 | Average Tumor Size (mm3) ± SEM on Day 22 ([4]; 4 mg/kg): 0 ± 0 mm3 | Average Tumor Size (mm3) ± SEM on Day 26 ([4]; 4 mg/kg): 0 ± 0 mm3 | Average Tumor Size (mm3) ± SEM on Day 29 ([4]; 4 mg/kg): 0 ± 0 mm3 | Average Tumor Size (mm3) ± SEM on Day 34 ([4]; 4 mg/kg): 0 ± 0 mm3 | Average Tumor Size (mm3) ± SEM on Day 39 ([4]; 4 mg/kg): 0 ± 0 mm3 | Average Tumor Size (mm3) ± SEM on Day 42 ([4]; 4 mg/kg): 0 ± 0 mm3 | Average Tumor Size (mm3) ± SEM on Day 46 ([4]; 4 mg/kg): 0 ± 0 mm3 | Average Tumor Size (mm3) ± SEM on Day 55 ([4]; 4 mg/kg): 0 ± 0 mm3 | Average Tumor Size (mm3) ± SEM on Day 60 ([4]; 4 mg/kg): 0 ± 0 mm3
